This test has as its system liver organoids. The experiment in a line: Real-time quantitative PCR of lipogenesis- and fibrosis-related genes in fatty liver organoids. The test is classed as cell-based, mice. Conditions: mouse fatty liver organoids, 1 and 3 μM, 72 hours, qPCR. An excerpt:
Liver samples or liver organoid samples were homogenized in TRI Reagent (T9424, Sigma), and total RNA was extracted according to the manufacturer's instructions. Equal amounts of RNA template were used to synthesize cDNA with oligo dT primers and MLV reverse transcriptase (Promega). Quantitative data for genes were collected using the Bio-Rad CFX96 real-time PCR system, and the relative amount of gene mRNA was quantified using the comparative CT method.
C57BL/6N mice were fed with fatty liver-inducing diet (TrophicDiet, TP2630052A, containing 10.2% kcal protein, 37.3% kcal carbohydrate, and 52.6% kcal fat) and fructose-containing drinking water (23.1 g of fructose and 18.9 g of dextrose were dissolved in 1 L of water, then filtered and sterilized) for a total of 16 weeks starting at 12 weeks of age to generate a fatty liver model. To generate fatty liver organoids, liver tissues from mice with fatty liver were minced and digested in digestion buffer at 37° C. for 30 to 60 minutes. The digestion buffer included DMEM/F-12 (Cytiva, SH30023.01), 2.5 mg/mL collagenase D (Roche, COLLD-RO), and 0.1 mg/mL DNaseI (Sigma-Aldrich, DN25). […]
To distinguish whether the inhibitory effect of 25-hydroxylanosterol is directly based on its effect on the liver or a systemic effect, we utilized 3D liver organoids as an in vitro model for the study of fatty liver to analyze the effect of 25-hydroxylanosterol on lipogenesis and fibrosis marker expression in liver organoids. […] RNA from the organoids was collected and analyzed for the differential expression of lipogenesis-related genes (Hmgcs, Hmgcr, SCD1, and FASN) and fibrosis markers (αSMA and Colla1) using fluorescent real-time quantitative PCR.
In FIGS. 35 and 36, data are represented as mean±standard deviation. P values were calculated using one-way ANOVA; ns indicates no statistical difference; * indicates P<0.05; ** indicates P<0.01; *** indicates P<0.001. In FIGS. 47 and 53, quantitative analysis was performed using ImageJ software. […] P values were calculated using one-way ANOVA; * indicates P<0.05; ** indicates P<0.01; *** indicates P<0.001.

As for `CC[C@H]1[C@@H](O)[C@@H]2[C@H](CC[C@]3(C)[C@@H]([C@H](C)CCC(=O)O)CC[C@@H]23)[C@@]2(C)CC[C@@H](O)C[C@@H]12` [obeticholic acid, Obeticholic acid, reference compound], the “expression levels of lipogenesis-related genes (Hmgcs, Hmgcr, SCD1, and FASN)” value was “failed to inhibit”.

(Values after patent US20250154193A1, “STEROID COMPOUND, AND PREPARATION METHOD THEREFOR AND APPLICATION THEREOF” (CHOLESGEN (SHANGHAI) CO., LTD., priority 2022, published 2025).)
